Laboratory results from patent US7601687B2, “Mechanism for identifying drugs for the treatment of type II diabetes” (BioCrine AB, priority 2006, dated 2009).
“Also recorded” adds a separate entry of the source.

How the values were obtained:
[1] = system: rat βGK promoter; experiment: On-line monitoring of βGK promoter-driven GFP expression (prβGK.GFP) in transfected HIT-T15 cells, islet cells and islets; type: cell-based, hamster (HIT-T15), rat (islet cells); settings: for effect of inhibitor on insulin-stimulated βGK transcription / promoter activity: 5 mU/ml insulin 5 min, 150 nM BIM, 20 μM PD98059, 10 μM PD169316, 100 μM HNMPA-(AM)3, 400 nM AC, FIG. 5; for effect of inhibitor on insulin-stimulated βGK transcription / promoter activity / effect of inhibitor on insulin-stimulated βGK promoter activity (GFP) in the same co-transfected cell: 25 μM LY294002, 10 nM rapamycin; for effect of inhibitor on insulin-stimulated βGK promoter activity (GFP) in the same co-transfected cell: 5 mU/ml insulin, 400 nM AC, 100 μM HNMPA-(AM)3
From the text: Construction of prIns1.GFP has been described earlier (Leibiger et al., 1998a). Vector prIns1.DsRed was generated by exchanging the EGFP-expression cassette versus the DsRed-expression cassette obtained from pDsRed1-1 (Clontech). Plasmid prβGK.GFP (i.e. prβGK-278.GFP) was generated by exchanging the CAT-SV40pA-expression cassette of prβGK-278.CAT (Leibiger et al., 1994a) versus the EGFP-bGHpA-expression cassette obtained from pRcCMVI.GFP (Moede et al., 1999). […] All vector constructions were verified by DNA sequence analysis. […] Expression constructs pCMV5.PKBα, pCMV5.PKBαΔ308/437, pCMV5.PDK1 and pCMV5.PDK1-antisense were kindly provided by Drs. P. Cohen and D. R. Alessi (MRC Phosphorylation Unit, University of Dundee, UK).
HIT cells were reported to show glucose responsiveness at subphysiological concentrations between 0.1 and 2 mM (Sharma et al., 1995). HIT cells were grown in RPMI 1640 medium supplemented with 100 units/ml penicillin, 100 μg/ml streptomycin, 2 mM glutamine and 10% fetal calf serum at 5% CO2 and 37° C. Pancreatic islets were isolated from normally fed male Wistar rats and from mice by collagenase digestion. Isolated islets were incubated overnight at 5% CO2 and 37° C. in RPMI 1640 medium, supplemented as described above. Transfection of HIT-T15 and islet cells was performed overnight by the lipofectamine technique in RPMI 1640 medium, without serum and antibiotics. For on-line monitoring, cells were grown and transfected on 24-mm glass coverslips. Following transfection, HIT cells were cultured for 12-18 h in RPMI 1640 medium containing 0.1 mM glucose, 10% fetal calf serum and supplemented as above. Before stimulation, islets and islet cells were incubated for 2 h in RPMI 1640 medium, supplemented as above but containing 3 mM glucose. All expression constructs were prepared using the Qiagen Plasmid Maxi Kit (Qiagen), except those used to produce the adenoviruses which where purified by ultracentrifugation via a CsCI-gradient (as described in Sambrook et al, 1989).
Islets were transduced with Ad.rβGK.GFP or Ad.CMV.GFP by incubating 50 islets with 1 ml virus-containing medium for 90 min at 37° C. and 5% CO2. Following transduction, islets were washed 3 times with PBS and cultured further in RPMI 1640 medium. Islets were stimulated 40-72 h after transduction, as described below and analyzed by laser-scanning confocal microscopy.
All experiments were performed in RPMI 1640 medium, supplemented as above. Protein kinase inhibitors, antibodies or nifedipine were added to the culture medium 30 min prior to stimulation and were kept in the medium throughout stimulation. After stimulation islets, islet cells and HIT cells were cultured further at substimulatory glucose concentrations (0.1 mM for HIT cells and 3 mM for islets and islet cells). For RNA-analysis, islets and cells were harvested 60 min after start of stimulation, if not indicated otherwise. For analysis of protein kinase activities or tyrosine phosphorylation, cells were harvested immediately following stimulation.
(§1) Detection of fluorescence by digital imaging fluorescence microscopy was performed as described previously (Leibiger et al., 1998a; Leibiger et al., 1998b). Briefly, transfected cells were grown on 24-mm glass coverslips. After stimulation the coverslips were placed into a perifusion chamber which was mounted on an inverted microscope (Zeiss Axiovert 135TV). Temperature was kept at 37° C. and the cells were perfused with RPMI 1640 medium. The objective lens used was a Zeiss-Fluar ×40/1.30 oil Imm Korr. Fluorescence imaging was performed with a cooled charged-coupled device camera (CH250 with KAF 1400, Photometrics, Tucson, Ariz.) connected to an imaging system (Inovision) with fluorescence excitation from a SPEX fluorolog-2 CM1T11I spectrofluorometer (Spex Industries).

[2] = system: rat insulin-I promoter; experiment: Insulin promoter-driven DsRed expression in co-transfected human islet cells; type: cell-based
Experimental: Data are presented as the ratio of fluorescence obtained at minutes 240 and 60 and represent mean values ±S.E. (n=11).
as §1, with “Industries). […]” for “Industries).”
On-line monitoring was initiated 60 min following the start of stimulation and the 60-min value of GFP- or DsRed-fluorescence was set to 1.0. Cells to be monitored were chosen randomly at minute 60 from six fields of vision and fluorescence was monitored up to minute 240. By overlaying the fluorescence and phase-contrast images, the position of cells on the coverslip could be checked. Fluorescence intensity was calculated by using the ISee-software for UNIX (Inovision Corporation).

[3] = system: PKB/c-Akt; experiment: PKB/c-Akt Ser473 phosphorylation and PKB activity in HIT cells; type: cell-based, hamster
Experimental: Phosphorylated PKB/c-Akt was analyzed by employing the PhosphoPlus Akt(Ser473) Antibody Kit (New England Biolabs) according to the manufacturer's instructions. Briefly, HIT cells were cultured as described above. […] Following centrifugation of the lysate for 20 min at 14,000×g and 4° C., aliquotes of the supernatant containing 200 μg protein were separated by SDS-PAGE over a 7.5% polyacrylamide gel. Proteins were electro-transferred onto PVDF-membrane (Immobilon-P, Millipore) overnight at stabilized 125 mA. Immunoblotting was performed with either rabbit polyclonal Phospho-Akt(Ser473) antibody or with rabbit polyclonal […] antibody and HRP-conjugated secondary antibodies. For detection the membrane was incubated with LumiGLO containing peroxide and exposed to X-ray film.
Analysis of PKB/Akt activity was performed employing the Akt1-PKBα e Immunoprecipitation Kinase Assay Kit (Upstate Biotech.) according to the manufacturer's instructions. Lysates of HIT cells containing 1 mg of protein were subjected to immunoprecipitation. The immunoprecipitate was used for PKB/Akt kinase assay using γ[^32P]-ATP and Akt/SGK-specific substrate peptide. Phosphorylated substrates were blotted onto phosphocellulose P81 paper and analyzed by LSC.

Molecule	effect of inhibitor on insulin-stimulated βGK transcription / promoter activity [1]	effect of inhibitor on insulin-stimulated βGK promoter activity (GFP) in the same co-transfected cell [1]	effect of inhibitor on insulin-stimulated insulin gene expression ([2]; 400 nM AC, 10 nM rapamycin, low concentrations: 50 nM wortmannin, 25 μM LY 294002 (FIG. 15))	effect on glucose-induced activation of PKB ([3]; FIG. 7E, PKB activity 10 min after start of glucose stimulation)	βGK promoter-driven GFP fluorescence upon insulin stimulation ([1]; 5 mU insulin per ml for 5 min, substimulatory glucose)	amount of exogenous insulin required to gain an effect on βGK promoter activation ([1]; transfected HIT-T15 cells, supplemented culture medium (FIG. 4B)) [μU per ml]	time following stimulation at which PKB activation (Ser473 phosphorylation) was observed ([3]; 16.7 mM glucose or 5 mU insulin/ml at substimulatory glucose) [min]	insulin promoter-driven DsRed expression upon insulin stimulation ([2]; 5 mU/ml insulin for 5 min, sub-stimulatory glucose)
autocamtide-2 related inhibitory peptide	altered neither	no effect	sensitive					
CC(=O)OCOC(c1ccc2ccccc2c1)P(=O)(OCOC(C)=O)OCOC(C)=O (stereo not shown) [HNMPA-(AM)3]	sensitive	abolished		abolished				
insulin					increase; also recorded: elevation	20	2	up-regulation
